Assay results: patent publication US8952024B2, “Herbicidal pyrimidone derivatives” (E I du Pont de Nemours and Company, priority 2009, dated 2015)

Columns and labels:
Type in all cases: in vivo
[1] = tested on: bermudagrass (Cynodon dactylon); assay: Test B pre-/postemergence plant response
Text: (§1) Seeds of plant species selected from blackgrass (Alopecurus myosuroides), downy bromegrass (Bromus tectorum), green foxtail (Setaria viridis), Italian ryegrass (Lolium multiflorum), wheat (Triticum aestivum), wild oat (Avena fatua), deadnettle (henbit deadnettle, Lamium amplexicaule), galium (catchweed bedstraw, Galium aparine), bermudagrass (Cynodon dactylon), Surinam grass (Brachiaria decumbens), cocklebur (Xanthium strumarium), corn (Zea mays), large crabgrass (Digitaria sanguinalis), woolly cupgrass (Eriochloa villosa), giant foxtail (Setaria faberii), goosegrass (Eleusine indica), johnsongrass (Sorghum halepense), kochia (Kochia scoparia), lambsquarters (Chenopodium album), morningglory (Ipomoea coccinea), nightshade (eastern black nightshade, Solanum ptycanthum), yellow nutsedge (Cyperus esculentus), pigweed (Amaranthus retroflexus), ragweed (common ragweed, Ambrosia elatior), Russian thistle (Salsola kali), soybean (Glycine max), sunflower (common oilseed sunflower, Helianthus annuus) and velvetleaf (Abutilon theophrasti) were planted into a blend of loam soil and sand and treated preemergence with test compounds formulated in a non-phytotoxic solvent mixture which included a surfactant.
(§2) At the same time, plants selected from these crop and weed species and also winter barley (Hordeum vulgare), canarygrass (Phalaris minor), chickweed (Stellaria media) and windgrass (Apera spica-venti) were planted in pots containing Redi-Earth® planting medium (Scotts Company, 14111 Scottslawn Road, Marysville, Ohio 43041) comprising spaghnum peat moss, vermiculite, wetting agent and starter nutrients and treated with postemergence applications of some of the test chemicals formulated in the same manner. Plants ranged in height from 2 to 18 cm (1- to 4-leaf stage) for postemergence treatments.
(§3) Treated plants and controls were maintained in a greenhouse for 13 to 15 days, after which time all treated plants were visually evaluated and compared to controls. Plant response ratings, summarized in Table B, are based on a scale of 0 to 100 where 0 is no effect and 100 is complete control. A dash (-) response means no test result.

[2] = tested on: blackgrass (Alopecurus myosuroides); assay: Test B pre-/postemergence plant response
Text: as §1, §2, §3

[3] = tested on: cocklebur (Xanthium strumarium); assay: Test B pre-/postemergence plant response
Text: as §1, §2, §3

[4] = tested on: downy bromegrass (Bromus tectorum); assay: Test B pre-/postemergence plant response
Text: as §1, §2, §3

[5] = tested on: giant foxtail (Setaria faberii); assay: Test B pre-/postemergence plant response
Text: as §1, §2, §3

[6] = tested on: green foxtail (Setaria viridis); assay: Test B pre-/postemergence plant response
Text: as §1, §2, §3

[7] = tested on: johnsongrass (Sorghum halepense); assay: Test B pre-/postemergence plant response
Text: as §1, §2, §3

kochia (Kochia scoparia) = assay: Test B pre-/postemergence plant response
Text: as §1, §2, §3

[8] = tested on: morningglory (Ipomoea coccinea); assay: Test B pre-/postemergence plant response
Text: as §1, §2, §3

[9] = tested on: ragweed (common ragweed, Ambrosia elatior); assay: Test B pre-/postemergence plant response; conditions: Preemergence
Text: as §1, §2, §3

soybean (Glycine max) = assay: Test B pre-/postemergence plant response
Text: as §1, §2, §3

[10] = tested on: velvetleaf (Abutilon theophrasti); assay: Test B pre-/postemergence plant response
Text: as §1, §2, §3

[11] = tested on: wheat (Triticum aestivum); assay: Test B pre-/postemergence plant response
Text: as §1, §2, §3

wild oat (Avena fatua) = assay: Test B pre-/postemergence plant response
Text: as §1, §2, §3

[12] = tested on: yellow nutsedge (Cyperus esculentus); assay: Test B pre-/postemergence plant response
Text: as §1, §2, §3

[13] = tested on: canarygrass (Phalaris minor); assay: Test B postemergence plant response; conditions: Postemergence
Method in brief: (§4)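 Plants grown in peat/vermiculite medium were sprayed postemergence at 2–18 cm height (1- to 4-leaf stage). After 13–15 days in the greenhouse, response was rated visually against untreated controls on a 0–100 scale (0 no effect, 100 complete control).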

[14] = tested on: chickweed (Stellaria media); assay: Test B postemergence plant response; conditions: Postemergence
Method in brief: as §4

[15] = tested on: windgrass (Apera spica-venti); assay: Test B postemergence plant response; conditions: Postemergence
Method in brief: as §4

[16] = Postemergence, 31 g ai/ha, 0 to 100 scale (0 no effect, 100 complete control)
[17] = Postemergence, 125 g ai/ha, scale 0 to 100 (0 no effect, 100 complete control)
[18] = Postemergence, 250 g ai/ha, scale 0 to 100 (0 no effect, 100 complete control), 13 to 15 days
[19] = Postemergence, 62 g ai/ha, scale 0 to 100 (0 no effect, 100 complete control)
[20] = Preemergence, 31 g ai/ha, scale 0 to 100 (0 no effect, 100 complete control)
[21] = Preemergence, 62 g ai/ha, scale 0 to 100, 0 no effect, 100 complete control
[22] = Preemergence, 125 g ai/ha, scale 0 to 100, 0 no effect, 100 complete control
[23] = Preemergence, 250 g ai/ha, 0 to 100 scale
[24] = 31 g ai/ha, 0 to 100 scale (0 no effect, 100 complete control)
[25] = 125 g ai/ha, scale 0 to 100 (0 no effect, 100 complete control)
[26] = 250 g ai/ha, scale 0 to 100 (0 no effect, 100 complete control), 13 to 15 days
[27] = 62 g ai/ha, scale 0 to 100 (0 no effect, 100 complete control)

CCCCn1c(C2CC2)ncc(C(=O)C2=C(O)CCCC2=O)c1=O [Compound 193]
Plant response rating, Bermudagrass [1, 16]: 95 | Plant response rating, Bermudagrass [1, 17]: 100 | Plant response rating, Bermudagrass [1, 18]: 100 | Plant response rating, Bermudagrass [1, 19]: 100 | Plant response rating, Bermudagrass [1, 20]: 75 | Plant response rating, Bermudagrass [1, 21]: 95 | Plant response rating, Bermudagrass [1, 22]: 95 | Bermudagrass plant response rating ([1]; Preemergence, 250 g ai/ha, 0 to 100 scale, 0 no effect, 100 complete control): 98 | Plant response rating, Blackgrass [2, 16]: 10 | Plant response rating, Blackgrass [2, 17]: 40 | Plant response rating, Blackgrass [2, 18]: 60 | Plant response rating, Blackgrass [2, 19]: 15 | Plant response rating, Blackgrass [2, 20]: 0 | Plant response rating, Blackgrass [2, 21]: 0 | Plant response rating, Blackgrass [2, 22]: 30 | Blackgrass plant response rating [2, 23]: 70 | Plant response rating, Cocklebur [3, 16]: 95 | Plant response rating, Cocklebur [3, 17]: 100 | Plant response rating, Cocklebur [3, 18]: 100 | Plant response rating, Cocklebur [3, 19]: 95 | Plant response rating, Cocklebur [3, 21]: 75 | Cocklebur plant response rating [3, 23]: 95 | Plant response rating, Bromegrass, Downy [4, 16]: 10 | Plant response rating, Bromegrass, Downy [4, 17]: 40 | Plant response rating, Bromegrass, Downy [4, 18]: 85 | Plant response rating, Bromegrass, Downy [4, 19]: 30 | Plant response rating, Bromegrass, Downy [4, 20]: 0 | Plant response rating, Bromegrass, Downy [4, 21]: 5 | Plant response rating, Bromegrass, Downy [4, 22]: 5 | Bromegrass, Downy plant response rating [4, 23]: 50 | Plant response rating, Foxtail, Giant [5, 16]: 75 | Plant response rating, Foxtail, Giant [5, 17]: 95 | Plant response rating, Foxtail, Giant [5, 18]: 100 | Plant response rating, Foxtail, Giant [5, 19]: 85 | Plant response rating, Foxtail, Giant [5, 20]: 0 | Plant response rating, Foxtail, Giant [5, 21]: 65 | Plant response rating, Foxtail, Giant [5, 22]: 70 | Foxtail, Giant plant response rating [5, 23]: 80 | Plant response rating, Foxtail, Green [6, 16]: 40 | Plant response rating, Foxtail, Green [6, 17]: 60 | Plant response rating, Foxtail, Green [6, 18]: 80 | Plant response rating, Foxtail, Green [6, 19]: 50 | Plant response rating, Foxtail, Green [6, 20]: 5 | Plant response rating, Foxtail, Green [6, 21]: 50 | Plant response rating, Foxtail, Green [6, 22]: 50 | Foxtail, Green plant response rating [6, 23]: 98 | Plant response rating, Johnsongrass [7, 16]: 50 | Plant response rating, Johnsongrass [7, 17]: 70 | Plant response rating, Johnsongrass [7, 18]: 80 | Plant response rating, Johnsongrass [7, 19]: 65 | Plant response rating, Johnsongrass [7, 20]: 0 | Plant response rating, Johnsongrass [7, 21]: 0 | Plant response rating, Johnsongrass [7, 22]: 15 | Johnsongrass plant response rating [7, 23]: 60 | Plant response rating, Kochia (kochia (Kochia scoparia); [16]): 20 | Plant response rating, Kochia (kochia (Kochia scoparia); [17]): 100 | Plant response rating, Kochia (kochia (Kochia scoparia); [18]): 100 | Plant response rating, Kochia (kochia (Kochia scoparia); [19]): 80 | Plant response rating, Kochia (kochia (Kochia scoparia); [20]): 20 | Plant response rating, Kochia (kochia (Kochia scoparia); [21]): 70 | Plant response rating, Kochia (kochia (Kochia scoparia); [22]): 80 | Kochia plant response rating (kochia (Kochia scoparia); [23]): 90 | Plant response rating, Morningglory [8, 16]: 40 | Plant response rating, Morningglory [8, 17]: 65 | Plant response rating, Morningglory [8, 18]: 90 | Plant response rating, Morningglory [8, 19]: 60 | Plant response rating, Morningglory [8, 20]: 75 | Plant response rating, Morningglory [8, 21]: 90 | Plant response rating, Morningglory [8, 22]: 95 | Morningglory plant response rating [8, 23]: 95 | Plant response rating, Ragweed ([9]; 31 g ai/ha, scale 0 to 100 (0 no effect, 100 complete control)): 100 | Plant response rating, Ragweed ([9]; 62 g ai/ha, scale 0 to 100, 0 no effect, 100 complete control): 100 | Plant response rating, Ragweed ([9]; 125 g ai/ha, scale 0 to 100, 0 no effect, 100 complete control): 100 | Ragweed plant response rating ([9]; 250 g ai/ha, 0 to 100 scale): 100 | Plant response rating, Soybean (soybean (Glycine max); [16]): 80 | Plant response rating, Soybean (soybean (Glycine max); [18]): 100 | Plant response rating, Soybean (soybean (Glycine max); [19]): 98 | Plant response rating, Soybean (soybean (Glycine max); [20]): 40 | Plant response rating, Soybean (soybean (Glycine max); [21]): 60 | Plant response rating, Soybean (soybean (Glycine max); [22]): 60 | Soybean plant response rating (soybean (Glycine max); [23]): 80 | Plant response rating, Velvetleaf [10, 16]: 90 | Plant response rating, Velvetleaf [10, 18]: 100 | Plant response rating, Velvetleaf [10, 19]: 100 | Plant response rating, Velvetleaf [10, 20]: 85 | Plant response rating, Velvetleaf [10, 21]: 100 | Plant response rating, Velvetleaf [10, 22]: 100 | Velvetleaf plant response rating [10, 23]: 100 | Plant response rating, Wheat [11, 16]: 30 | Plant response rating, Wheat [11, 18]: 60 | Plant response rating, Wheat [11, 19]: 35 | Plant response rating, Wheat [11, 20]: 0 | Plant response rating, Wheat [11, 21]: 0 | Plant response rating, Wheat [11, 22]: 10 | Wheat plant response rating [11, 23]: 25 | Plant response rating, Oat, Wild (wild oat (Avena fatua); [16]): 0 | Plant response rating, Oat, Wild (wild oat (Avena fatua); [18]): 75 | Plant response rating, Oat, Wild (wild oat (Avena fatua); [19]): 50 | Plant response rating, Oat, Wild (wild oat (Avena fatua); [20]): 5 | Plant response rating, Oat, Wild (wild oat (Avena fatua); [21]): 5 | Plant response rating, Oat, Wild (wild oat (Avena fatua); [22]): 30 | Oat, Wild plant response rating (wild oat (Avena fatua); [23]): 60 | Plant response rating, Nutsedge, Yellow [12, 16]: 60 | Plant response rating, Nutsedge, Yellow [12, 17]: 75 | Plant response rating, Nutsedge, Yellow [12, 18]: 75 | Plant response rating, Nutsedge, Yellow [12, 19]: 65 | Plant response rating, Nutsedge, Yellow [12, 20]: 10 | Plant response rating, Nutsedge, Yellow [12, 21]: 65 | Plant response rating, Nutsedge, Yellow [12, 22]: 70 | Nutsedge, Yellow plant response rating [12, 23]: 90 | Plant response rating, Canarygrass [13, 24]: 5 | Plant response rating, Canarygrass [13, 25]: 25 | Plant response rating, Canarygrass [13, 26]: 25 | Plant response rating, Canarygrass [13, 27]: 5 | Plant response rating, Chickweed [14, 24]: 95 | Plant response rating, Chickweed [14, 25]: 100 | Plant response rating, Chickweed [14, 26]: 100 | Plant response rating, Chickweed [14, 27]: 98 | Plant response rating, Windgrass [15, 24]: 50 | Plant response rating, Windgrass [15, 26]: 75 | Plant response rating, Windgrass [15, 27]: 70
